Laboratory results reported in patent US20240025862A1, “SUBSTITUTED N-PHENYLURACILS AND SALTS THEREOF, AND USE THEREOF AS HERBICIDAL ACTIVE SUBSTANCES” (Bayer Aktiengesellschaft, priority 2020, published 2024).

Experiments:
Format in all cases: in vivo
Setaria viridis (SETVI) = assay: Post-emergence herbicidal action, greenhouse pot test (also comparative test C); conditions: for Post-emergence action against SETVI: 20 g/ha
Method in brief: (§1)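 Green parts of one-leaf-stage plants are sprayed at 600 l/ha with formulated compound plus 0.5% additive, then kept under optimum greenhouse conditions for about 3 weeks. Damage is scored visually, where 100% means dead plants and 0% means no difference from controls.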

[1] = test system: Alopecurus myosuroides (ALOMY); assay: as above; conditions: rated visually after about 3 weeks vs untreated controls, 100% = plants have died
Method in brief: as §1

[2] = test system: Matricaria inodora (MATIN); assay: as above
Method in brief: as §1

[3] = test system: Echinochloa crus-galli (ECHCG); assay: as above
Method in brief: as §1

Veronica persica (VERPE) = assay: Post-emergence herbicidal action, greenhouse pot test
Method in brief: (§2)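 Activity was scored by eye about 3 weeks after treatment against untreated plants, where 100% means dead plants and 0% means no difference. Plants at the one-leaf stage received a foliar spray of WP or EC formulations in water plus 0.5% additive (600 l/ha, up to 20 g/ha). Plants were grown in sandy loam pots in a greenhouse for 2–3 weeks before spraying.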

[4] = test system: Abutilon theophrasti (ABUTH); assay: as above; conditions: rated visually after about 3 weeks vs untreated controls, 100% = plants have died
Method in brief: as §2

Viola tricolor (VIOTR) = assay: as above
Method in brief: as §2

[5] = test system: Amaranthus retroflexus (AMARE); assay: as above; conditions: rated visually after about 3 weeks vs untreated controls, 100% = plants have died
Method in brief: as §2

Lolium rigidum (LOLRI) = assay: as above; conditions: dosage 20 g/ha
Method in brief: as §2

[6] = test system: Polygonum convolvulus (POLCO); assay: as above
Method in brief: as §2

[7] = test system: Pharbitis purpurea (PHBPU); assay: as above
Method in brief: as §2

Zea mays (ZEAMX) = assay: Post-emergence crop plant compatibility, greenhouse pot test; conditions: 1.25 g/ha, vs untreated controls
Method in brief: (§3)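 Greenhouse pot test; post-emergence foliar spray at one-leaf stage, WP or EC in water + 0.5% additive, 600 l/ha. Visual rating after ~3 wk, % relative to untreated (0–100%).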

Glycine max (GLXMA) = assay: as above; conditions: 1.25 g/ha
Method in brief: as §3

[8] = test system: Triticum aestivum (TRZAS); assay: as above; conditions: vs untreated controls
Method in brief: as §3

Oryza sativa (ORYSA) = assay: Post-emergence crop plant compatibility, greenhouse pot test (also comparative test C); conditions: for Post-emergence action against ORYSA (crop plant compatibility): vs untreated controls
Method in brief: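 Visual damage versus untreated plants (0% = like control, 100% = plants died) was scored about 3 weeks after a post-emergence spray in greenhouse pots. Treatment: one-leaf stage, WP or EC in water at 600 l/ha with 0.5% additive; a/b/c mark different dosages on the same crop.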

Avena fatua (AVEFA) = assay: Post-emergence herbicidal action, greenhouse pot test; conditions: 20 g/ha, rated visually after about 3 weeks vs untreated controls, 100% = plants have died
Method in brief: as §2

CCOCCOC(=O)COc1ccccc1Oc1cc(-n2c(=O)cc(C(F)(F)F)n(C)c2=O)c(F)cc1[N+](=O)[O-] [I.6-2]
100%: Post-emergence action against SETVI (Setaria viridis (SETVI)) | Post-emergence action against SETVI in % (Setaria viridis (SETVI); dosage 1.25 g/ha) | Post-emergence action against SETVI in % (Setaria viridis (SETVI); dosage 5 g/ha) | Post-emergence action against MATIN in % ([2]; dosage 20 g/ha) | Post-emergence action against ECHCG in % ([3]; dosage 20 g/ha) | Post-emergence action against VERPE (Veronica persica (VERPE); 1.25 g/ha) | Post-emergence action against VERPE (Veronica persica (VERPE); 5 g/ha) | Post-emergence action against VERPE (Veronica persica (VERPE); 20 g/ha) | Post-emergence action at 1.25 g/ha against ABUTH in % [4] | Post-emergence action at 5 g/ha against ABUTH in % [4] | Post-emergence action at 20 g/ha against ABUTH in % [4] | Post-emergence action against VIOTR (Viola tricolor (VIOTR); 1.25 g/ha) | Post-emergence action against VIOTR (Viola tricolor (VIOTR); 5 g/ha) | Post-emergence action against VIOTR (Viola tricolor (VIOTR); 20 g/ha) | Post-emergence action at 1.25 g/ha against AMARE in % [5] | Post-emergence action at 5 g/ha against AMARE in % [5] | Post-emergence action at 20 g/ha against AMARE in % [5] | Post-emergence action against POLCO in % ([6]; dosage 5 g/ha) | Post-emergence action against POLCO in % ([6]; dosage 20 g/ha) | Post-emergence action against PHBPU in % ([7]; dosage 1.25 g/ha) | Post-emergence action against PHBPU in % ([7]; dosage 5 g/ha) | Post-emergence action against PHBPU in % ([7]; dosage 20 g/ha)
90%: Post-emergence action at 20 g/ha against ALOMY in % [1] | Post-emergence action against MATIN in % ([2]; dosage 5 g/ha) | Post-emergence action against ECHCG in % ([3]; dosage 5 g/ha) | Post-emergence action against LOLRI in % (Lolium rigidum (LOLRI))
0%: Post-emergence action against ORYSA (crop plant compatibility) (Oryza sativa (ORYSA); 1.25 g/ha) | Post-emergence action against ORYSA (crop plant compatibility) (Oryza sativa (ORYSA); 5 g/ha)
20%: Post-emergence action against ZEAMX (crop plant compatibility) (Zea mays (ZEAMX)) | Post-emergence action against GLXMA in % (Glycine max (GLXMA)) | Post-emergence action against TRZAS (crop plant compatibility) ([8]; 1.25 g/ha) | Post-emergence action against TRZAS (crop plant compatibility) ([8]; 5 g/ha) | Post-emergence action against ORYSA in % (Oryza sativa (ORYSA); 20 g/ha, crop plant compatibility)

COCCOC(=O)COc1ccccc1Oc1cc(-n2c(=O)cc(C(F)(F)F)n(C)c2=O)c(F)cc1Br [I.8-1]
90%: Post-emergence action against POLCO in % ([6]; dosage 1.25 g/ha)
80%: Post-emergence action at 1.25 g/ha against ECHCG in % ([3]; 1.25 g/ha, rated visually after about 3 weeks vs untreated controls, 100% = plants have died) | Post-emergence action against LOLRI in % (Lolium rigidum (LOLRI)) | Post-emergence action at 20 g/ha against AVEFA in % (Avena fatua (AVEFA))
20%: Post-emergence action against ZEAMX (crop plant compatibility) (Zea mays (ZEAMX)) | Post-emergence action against TRZAS (crop plant compatibility) ([8]; 1.25 g/ha) | Post-emergence action against ORYSA (crop plant compatibility) (Oryza sativa (ORYSA); 5 g/ha)
0%: Post-emergence action against ORYSA (crop plant compatibility) (Oryza sativa (ORYSA); 1.25 g/ha)
100%: Post-emergence action against SETVI (Setaria viridis (SETVI)) | Post-emergence action against SETVI in % (Setaria viridis (SETVI); dosage 1.25 g/ha) | Post-emergence action against SETVI in % (Setaria viridis (SETVI); dosage 5 g/ha) | Post-emergence action at 5 g/ha against ALOMY in % [1] | Post-emergence action at 20 g/ha against ALOMY in % [1] | Post-emergence action against MATIN in % ([2]; dosage 1.25 g/ha) | Post-emergence action against MATIN in % ([2]; dosage 5 g/ha) | Post-emergence action against MATIN in % ([2]; dosage 20 g/ha) | Post-emergence action against ECHCG in % ([3]; dosage 5 g/ha) | Post-emergence action against ECHCG in % ([3]; dosage 20 g/ha) | Post-emergence action against VERPE (Veronica persica (VERPE); 1.25 g/ha) | Post-emergence action against VERPE (Veronica persica (VERPE); 5 g/ha) | Post-emergence action against VERPE (Veronica persica (VERPE); 20 g/ha) | Post-emergence action at 1.25 g/ha against ABUTH in % [4] | Post-emergence action at 5 g/ha against ABUTH in % [4] | Post-emergence action at 20 g/ha against ABUTH in % [4] | Post-emergence action against VIOTR (Viola tricolor (VIOTR); 1.25 g/ha) | Post-emergence action against VIOTR (Viola tricolor (VIOTR); 5 g/ha) | Post-emergence action against VIOTR (Viola tricolor (VIOTR); 20 g/ha) | Post-emergence action at 1.25 g/ha against AMARE in % [5] | Post-emergence action at 5 g/ha against AMARE in % [5] | Post-emergence action at 20 g/ha against AMARE in % [5] | Post-emergence action against POLCO in % ([6]; dosage 5 g/ha) | Post-emergence action against POLCO in % ([6]; dosage 20 g/ha) | Post-emergence action against PHBPU in % ([7]; dosage 1.25 g/ha) | Post-emergence action against PHBPU in % ([7]; dosage 5 g/ha) | Post-emergence action against PHBPU in % ([7]; dosage 20 g/ha)

Cn1c(C(F)(F)F)cc(=O)n(-c2cc(Oc3ccccc3OCC(=O)OCc3ccccn3)c(Br)cc2F)c1=O [I.8-276]
80%: Post-emergence action at 5 g/ha against ALOMY in % [1] | Post-emergence action against MATIN in % ([2]; dosage 1.25 g/ha) | Post-emergence action against MATIN in % ([2]; dosage 5 g/ha) | Post-emergence action at 20 g/ha against AVEFA in % (Avena fatua (AVEFA))
20%: Post-emergence action against ZEAMX (crop plant compatibility) (Zea mays (ZEAMX)) | Post-emergence action against TRZAS (crop plant compatibility) ([8]; 1.25 g/ha) | Post-emergence action against TRZAS (crop plant compatibility) ([8]; 5 g/ha) | Post-emergence action against ORYSA (crop plant compatibility) (Oryza sativa (ORYSA); 1.25 g/ha)
100%: Post-emergence action against SETVI (Setaria viridis (SETVI)) | Post-emergence action against SETVI in % (Setaria viridis (SETVI); dosage 1.25 g/ha) | Post-emergence action against SETVI in % (Setaria viridis (SETVI); dosage 5 g/ha) | Post-emergence action at 20 g/ha against ALOMY in % [1] | Post-emergence action against MATIN in % ([2]; dosage 20 g/ha) | Post-emergence action against ECHCG in % ([3]; dosage 5 g/ha) | Post-emergence action against ECHCG in % ([3]; dosage 20 g/ha) | Post-emergence action against VERPE (Veronica persica (VERPE); 1.25 g/ha) | Post-emergence action against VERPE (Veronica persica (VERPE); 5 g/ha) | Post-emergence action against VERPE (Veronica persica (VERPE); 20 g/ha) | Post-emergence action at 1.25 g/ha against ABUTH in % [4] | Post-emergence action at 5 g/ha against ABUTH in % [4] | Post-emergence action at 20 g/ha against ABUTH in % [4] | Post-emergence action against VIOTR (Viola tricolor (VIOTR); 1.25 g/ha) | Post-emergence action against VIOTR (Viola tricolor (VIOTR); 5 g/ha) | Post-emergence action against VIOTR (Viola tricolor (VIOTR); 20 g/ha) | Post-emergence action at 1.25 g/ha against AMARE in % [5] | Post-emergence action at 5 g/ha against AMARE in % [5] | Post-emergence action at 20 g/ha against AMARE in % [5] | Post-emergence action against LOLRI in % (Lolium rigidum (LOLRI)) | Post-emergence action against POLCO in % ([6]; dosage 5 g/ha) | Post-emergence action against POLCO in % ([6]; dosage 20 g/ha) | Post-emergence action against PHBPU in % ([7]; dosage 1.25 g/ha) | Post-emergence action against PHBPU in % ([7]; dosage 5 g/ha) | Post-emergence action against PHBPU in % ([7]; dosage 20 g/ha)
